Test results taken from patent US7691848B2, “Pyrrolobenzodiazepine arylcarboxamides and derivatives thereof as follicle-stimulating hormone receptor antagonists” (Wyeth, priority 2005, dated 2010).
Where two headings read alike, the source gives them in different places.

Columns and labels:
hFSH-R = biological target: T1, hFSH-R (Homo sapiens, UniProt P23945); assay: cAMP accumulation (RIA) in CHO-3D2 cells (hFSH-R), hFSH-induced; format: cell-based; details: for Emax: read-out: cAMP % efficacy
T1 construct: expressed in transfected cells; host or cells: CHO-3D2 cells (CHO-K1 parental line)
T1 sequence (P23945 18-695): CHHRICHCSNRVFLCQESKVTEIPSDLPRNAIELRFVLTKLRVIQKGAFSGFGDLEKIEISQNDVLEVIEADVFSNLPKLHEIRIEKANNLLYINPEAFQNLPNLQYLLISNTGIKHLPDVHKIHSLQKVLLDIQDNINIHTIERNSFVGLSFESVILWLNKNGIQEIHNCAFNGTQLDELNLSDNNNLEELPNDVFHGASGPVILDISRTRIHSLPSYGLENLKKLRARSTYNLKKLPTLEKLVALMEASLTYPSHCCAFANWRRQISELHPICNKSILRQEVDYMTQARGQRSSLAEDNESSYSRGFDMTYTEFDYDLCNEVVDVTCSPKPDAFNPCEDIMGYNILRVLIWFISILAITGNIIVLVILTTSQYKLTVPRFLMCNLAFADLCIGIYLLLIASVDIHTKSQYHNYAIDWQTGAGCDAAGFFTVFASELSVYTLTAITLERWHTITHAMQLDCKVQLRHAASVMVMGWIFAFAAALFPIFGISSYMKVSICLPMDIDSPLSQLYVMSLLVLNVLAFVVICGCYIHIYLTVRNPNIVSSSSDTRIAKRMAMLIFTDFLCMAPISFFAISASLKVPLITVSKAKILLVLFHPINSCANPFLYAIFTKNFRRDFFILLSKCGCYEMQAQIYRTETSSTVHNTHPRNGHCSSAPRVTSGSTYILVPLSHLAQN
Description: In Vitro Bio-Assay, Selectivity and Dependency of Agonists and Antagonists to the FSH Receptor
Compound Vehicle: Stock compounds were solubilized in 100% DMSO (Sigma-Aldrich Chemical Co., St. Louis, Mo.) at a concentration of 30 mM. The compounds subsequently were diluted in sterile assay medium consisting of Opti-MEM® I (Invitrogen/Life Technologies, Carlsbad, Calif.) with 0.1% (w/v) BSA (Sigma-Aldrich) prior to use in the bio-assay. The final concentration of DMSO in the assay was 0.1%.
Plated cells are then incubated at 37° C. in a humidified 5% CO2/95% air atmosphere.
Assay: On the day of the assay, cells were washed three times with 100 μl/well of assay medium consisting of Opti-MEM® I (Invitrogen/Life Technologies) with 0.1% (w/v) BSA (Sigma-Aldrich). Medium was removed and 100 μl of assay medium was added to each well. Plates were incubated for an additional 30 minutes at 37° C. […] Reactions were terminated by the addition of 50 μl of 0.2N hydrochloric acid to each well and cAMP-accumulation was measured by radioimmunoassay (RIA) using a commercially available kit (Amersham Biosciences, Piscataway, N.J.).
All test compounds were evaluated in a dose-response paradigm ranging from 0.01 to 30 μM. Controls and test compounds were evaluated in quadruplicate in a 96-well format.
Along with the test compounds, FSH also was run as a positive control in the agonist mode using concentrations ranging from 0.1-1000 ng/ml.
Data were analyzed by one-way analysis of variance and significant differences between treatments and control determined by Least Significant Difference test.
Test compounds were compared to the effect of purified human FSH.

human FSH receptor = biological target: T2, human FSH receptor (Homo sapiens, UniProt P23945); assay: Follicle-Stimulating Hormone Receptor-Dependent Cre-Luciferase Reporter Gene Assay (CHO FSH-R 6CRE-Luc cells); format: cell-based; details: for IC50: dose-response format, in presence of EC50 of purified human FSH
T2 construct: host or cells: CHO-K1 (CHO FSH-R 6CRE-Luc, 1D7 cells)
T2 sequence (P23945 18-695): T1 sequence (P23945 18-695)
How it was run: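 CHO-K1 cells stably expressing human FSH receptor and a 6×CRE-driven luciferase reporter; compounds in growth medium with 0.2% DMSO, incubated 4 h at 37 °C. Luciferase measured by chemiluminescence (RLU/sec/well); 2-dose results given as percent inhibition of the response to an EC50 concentration of FSH.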

[1] = inhibition of cAMP accumulation induced by hFSH at EC20, CHO-3D2 cells
[2] = 2-dose format, concentration in parentheses 30 μM, inhibition of the response to EC50 of FSH

| SMILES | melting point | IC50 (hFSH-R) | Emax (hFSH-R) | IC50 (human FSH receptor) | IC50 (hFSH-R; [1]) | cAMP % efficacy (hFSH-R; [1]) | CRE % inhibition (μM) (human FSH receptor; [2]) | inhibition at 30 µM (human FSH receptor; [2]) |
| --- | --- | --- | --- | --- | --- | --- | --- | --- |
| COc1cc(C(=O)N2Cc3ccc(C(=O)NCc4cccc(C(F)(F)F)c4)n3Cc3ccccc32)ccc1-c1ccccc1C [Example 42, 10-[(2-METHOXY-2′-METHYL-1,1′-BIPHENYL-4-YL)CARBONYL]-N-[3-(TRIFLUOROMETHYL)BENZYL]-10,11-DIHYDRO-5H-PYRROLO[2,1-C][1,4]BENZODIAZEPINE-3-CARBOXAMIDE] | 176 to 177 °C | 6.3 µM | 74% | 4.33 µM |  |  |  |  |
| Cc1ccccc1-c1ccc(C(=O)N2Cc3ccc(C(=O)NCc4ccc5c(c4)OCO5)n3Cc3ccccc32)cc1C [Example 23] | 149 to 151 °C | 7.7 µM | 77% | 1.41 µM |  |  |  |  |
| Cc1ccccc1-c1ccc(C(=O)N2Cc3ccc(C(=O)NCc4cccc(N)c4)n3Cc3ccccc32)cc1C [Example 34] | 105 to 115 °C | 2.6 µM |  | 5.37 µM |  |  |  |  |
| Cc1ccccc1-c1ccc(C(=O)N2Cc3ccc(C(=O)NCc4cccc(O)c4)n3Cc3ccccc32)cc1C [Example 10] |  | 0.9 µM | 97% | 4.14 µM |  |  |  |  |
| Cc1cccc(CNC(=O)c2ccc3n2Cc2ccccc2N(C(=O)c2ccc(-c4ccccc4C)c(C)c2)C3)c1 [Example 22] | 130 to 132 °C | 3 µM | 62% | 2.88 µM |  |  |  |  |
| Cc1ccccc1CNC(=O)c1ccc2n1Cc1ccccc1N(C(=O)c1ccc(-c3ccccc3C)c(C)c1)C2 [Example 17] | 128 to 130 °C | 2.6 µM | 88% | 6.39 µM |  |  |  |  |
| COc1cc(C(=O)N2Cc3ccc(C(=O)NCc4ccc5c(c4)OCCO5)n3Cc3ccccc32)ccc1-c1ccccc1C [Example 64] | 153 to 155 °C | 1.3 µM | 79% | 3.4 µM |  |  |  |  |
| Cc1ccc(CNC(=O)c2ccc3n2Cc2ccccc2N(C(=O)c2ccc(-c4ccccc4C)c(C)c2)C3)cc1 [Example 14] | 179 to 181 °C | 2.6 µM | 86% | 1.71 µM |  |  |  |  |
| COc1cccc(CNC(=O)c2ccc3n2Cc2ccccc2N(C(=O)c2ccc(-c4ccccc4C)c(C)c2)C3)c1 [Example 7] |  | 0.3 µM | 89% | 2.25 µM |  |  |  |  |
| Cc1ccc(CNC(=O)c2ccc3n2Cc2ccccc2N(C(=O)c2ccc(-c4ccccc4C)c(C)c2)C3)c(C)c1 [Example 21] | 159 to 161 °C | > 30 µM |  | 6.2 µM |  |  |  |  |
| COc1cc(C(=O)N2Cc3ccc(C(=O)NCCc4ccc(O)cc4)n3Cc3ccccc32)ccc1-c1ccccc1C [Example 55, N-[2-(4-HYDROXYPHENYL)ETHYL]-10-[(2-METHOXY-2′-METHYL-1,1′-BIPHENYL-4-YL)CARBONYL]-10,11-DIHYDRO-5H-PYRROLO[2,1-C][1,4]BENZODIAZEPINE-3-CARBOXAMIDE] | 190 to 194 °C | 13 µM | 60% | > 30 µM |  |  |  |  |
| COc1cc(CNC(=O)c2ccc3n2Cc2ccccc2N(C(=O)c2ccc(-c4ccccc4C)c(C)c2)C3)cc(OC)c1 [Example 20] | 183 to 184 °C | > 30 µM |  | 12 µM |  |  |  |  |
| COc1cc(C(=O)N2Cc3ccc(C(=O)NCc4cccc(C)c4)n3Cc3ccccc32)ccc1-c1ccccc1C [Example 37, 10-[(2-METHOXY-2′-METHYL-1,1′-BIPHENYL-4-YL)CARBONYL]-N-(3-METHYLBENZYL)-10,11-DIHYDRO-5H-PYRROLO[2,1-C][1,4]BENZODIAZEPINE-3-CARBOXAMIDE] | 165 to 166 °C | 0.7 µM | 80% | 4.03 µM |  |  |  |  |
| Cc1ccccc1-c1ccc(C(=O)N2Cc3ccc(C(=O)NCc4cccc(C(F)(F)F)c4)n3Cc3ccccc32)cc1C [Example 16] | 171 to 173 °C | 14 µM | 65% | 8.5 µM |  |  |  |  |
| Cc1ccccc1-c1ccc(C(=O)N2Cc3ccc(C(=O)NCCc4ccc(O)cc4)n3Cc3ccccc32)cc1C [Example 31] | 129 to 131 °C | 0.2 µM | 100% | 0.8 µM |  |  |  |  |
| COc1cc(C(=O)N2Cc3ccc(C(=O)NCc4ccccc4)n3Cc3ccccc32)ccc1-c1ccccc1C [Example 44, N-BENZYL-10-[(2-METHOXY-2′-METHYL-1,1′-BIPHENYL-4-YL)CARBONYL]-10,11-DIHYDRO-5H-PYRROLO[2,1-C][1,4]BENZODIAZEPINE-3-CARBOXAMIDE] | 170 to 174 °C | > 30 µM |  | 1.35 µM |  |  |  |  |
| COc1cc(C(=O)N2Cc3ccc(C(=O)NCc4ccc(F)cc4F)n3Cc3ccccc32)ccc1-c1ccccc1C [Example 61, N-(2,4-DILUOROBENZYL)-10-[(2-METHOXY-2′-METHYL-1,1′-BIPHENYL-4-YL)CARBONYL]-10,11-DIHYDRO-5H-PYRROLO[2,1-C][1,4]BENZODIAZEPINE-3-CARBOXAMIDE] |  |  |  | 4.23 µM | 2.8 µM | 82% | 50(30) % |  |
| COC(=O)c1cc(NC(=O)c2ccc3n2Cc2ccccc2N(C(=O)COc2ccc(Cl)cc2)C3)cc(C(=O)OC)c1 [Example 98, DIMETHYL 5-[({10-[(4-CHLOROPHENOXY)ACETYL]-10,11-DIHYDRO-5H-PYRROLO[2,1-C][1,4]BENZODIAZEPIN-3-YL}CARBONYL)AMINO]ISOPHTHALATE] | 213 to 217 °C |  |  | > 30 µM |  |  |  |  |
| Cc1ccccc1-c1ccc(C(=O)N2Cc3ccc(C(=O)NCCc4ccc5c(c4)OCO5)n3Cc3ccccc32)cc1C [Example 33] |  | > 30 µM |  | 5.65 µM |  |  |  |  |
| COc1ccccc1-c1ccc(C(=O)N2Cc3ccc(C(=O)NCC(c4ccccc4)N(C)C)n3Cc3ccccc32)cc1 (stereo not drawn) [Example 2] |  | 1.2 µM | 100% | 25.7 µM |  |  |  |  |
| Cc1ccccc1-c1ccc(C(=O)N2Cc3ccc(C(=O)NCC(c4ccccc4)c4ccccc4)n3Cc3ccccc32)cc1C [Example 90] | 126 to 128 °C |  |  | > 30 µM |  |  |  |  |
| Cc1ccc(CCNC(=O)c2ccc3n2Cc2ccccc2N(C(=O)c2ccc(-c4ccccc4C)c(C)c2)C3)cc1 [Example 29] | 161 to 163 °C |  |  |  |  |  |  | 52% |
| COc1cc(C(=O)N2Cc3ccc(C(=O)NCCc4ccc(C)cc4)n3Cc3ccccc32)ccc1-c1ccccc1C [Example 48] | 190 to 192 °C |  |  | > 30 µM |  |  |  |  |
| O=C(NCCc1ccc2c(c1)OCO2)c1ccc2n1Cc1ccccc1N(C(=O)CSc1ccc(Br)cc1)C2 [Example 104, N-[2-(1,3-BENZODIOXOL-5-YL)ETHYL]-10-{[(4-BROMOPHENYL)THIO]ACETYL}-10,11-DIHYDRO-5H-PYRROLO[2,1-C][1,4]BENZODIAZEPINE-3-CARBOXAMIDE] | 143 °C |  |  | > 30 µM |  |  |  |  |
| O=C(NCc1cccc(C(F)(F)F)c1)c1ccc2n1Cc1ccccc1N(C(=O)CSc1ccc(Br)cc1)C2 [Example 85, 10-{[(4-BROMOPHENYL)THIO]ACETYL}-N-[3-(TRIFLUOROMETHYL)BENZYL]-10,11-DIHYDRO-5H-PYRROLO[2,1-C][1,4]BENZODIAZEPINE-3-CARBOXAMIDE] | 102 °C |  |  |  |  |  |  | 24% |
| COc1ccccc1-c1ccc(C(=O)N2Cc3ccc(C(=O)N[C@H](CO)c4ccccc4)n3Cc3ccccc32)cc1 [Example 5] | 196 to 197 °C |  |  |  |  |  |  | 14% |
